From patent US20190343953A1, “ANTI-CANCER TREATMENTS WITH AN ANTI-MUC1 ANTIBODY AND AN ERBB INHIBITOR” (Glycotope GmbH, priority 2017, published 2019)

Test system: cancer cells
Assay: Cytotoxicity assay of SeeloMab (PankoMab-ADC), statements for the cancer cells in general
Type: cell-based, human
Details: pretreated for 3 days vs non-pretreated
Method: The cytotoxic potential of a TA-MUC1 targeting antibody drug conjugate (ADC) was investigated using SeeloMab, the ADC format of PankoMab with a microtubule inhibitor as toxin. Therefore, cells were pre-incubated for 3 days with an optimum concentration of EGFR inhibitor. […] After 3 days the antigen expression was confirmed by flow cytometry and cells were seeded at equal cell density (5000 cells/well) into the wells of a microtiter plate. Cells were incubated with different concentrations of SeeloMab, an isotype matched control ADC and unconjugated PankoMab served as negative control. After 4 days viability of the cells was measured using Celltiter-Glo Luminescent Cell Viability Assay (Promega) and percent proliferation was calculated relative to medium control.

## C#Cc1cccc(Nc2ncnc3cc(OCCOC)c(OCCOC)cc23)c1 [Erlotinib]
  reduction of proliferation by anti-TA-MUC1 ADC when cancer cells were pretreated with EGFR inhibitor: significantly stronger
